Laboratory results taken from patent publication US20130109734A1 (Metabolex, Inc., priority 2010, published 2013).
pEC50: −log10 of the molar value.

target: T1, human GPR120 (Homo sapiens, UniProt Q5NUL3); test: Intracellular Ca2+ assay in human GPR120 stable cell line (HEK293 co-expressing Gqi5), Flexstation; type: cell-based; conditions: % activity at 5 μM compared to the maximal activity of GW9508 at 6.7 μM (=100%); human GPR120 cells, Ca2+ fluorescence
T1 construct: host or cells: HEK293 cells co-expressing Gqi5
T1 sequence (Q5NUL3 1-361): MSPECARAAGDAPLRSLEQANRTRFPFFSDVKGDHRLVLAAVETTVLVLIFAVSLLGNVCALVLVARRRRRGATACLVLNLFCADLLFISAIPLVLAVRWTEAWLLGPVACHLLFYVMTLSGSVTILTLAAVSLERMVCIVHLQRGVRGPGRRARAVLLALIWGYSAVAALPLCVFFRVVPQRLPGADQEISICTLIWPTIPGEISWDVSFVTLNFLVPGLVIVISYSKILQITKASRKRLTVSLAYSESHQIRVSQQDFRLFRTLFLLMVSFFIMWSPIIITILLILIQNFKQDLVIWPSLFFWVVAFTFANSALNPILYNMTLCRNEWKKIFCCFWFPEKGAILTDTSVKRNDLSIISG
Procedure: Human GPR120 stable cell line was purchased from Multispan Inc (26219 Eden Landing Road, Hayward, Calif. 94545). This GPR120 cell line was generated in HEK293 cells co-expressing Gqi5. In this cell line, the Flag epitope tag (DYKDDDDK) was fused to the amino terminus of human GPR120 protein.
The concentration of intracellular Ca^2+ was measured as described below. Human GPR120 cells were plated in 96 well plates (Poly-D-Lysine coated black/clear Plate, Greiner Bio-One) at 70,000 cells per well and cultured overnight in conditions of 37° C. and 5% CO2. A Ca^2+assay dye stock solution was prepared by adding 10 mL of assay buffer (HBSS/20 mM HEPES, pH 7.4) to FLIPR Calcium 4 Assay Bulk Kit (Molecular Devices). The 10 mL of Ca^2+ assay dye solution was prepared by further diluting 0.5 mL of Ca^2+ assay dye stock solution with 10 mL of assay buffer. The medium of the cells was removed and immediately 100 μL of the Ca^2+ assay dye solution was dispensed into each well followed by incubation at 37° C. and 5% CO2 for 50 minutes to incorporate the Ca^2+ dye into the cells. The cell plate was then placed in the Flexstation (Molecular Devices) for 20 minutes at 37° C. Compounds were dissolved in 100% DMSO and diluted to desired concentrations with assay buffer and placed in the Flexstation simultaneously with the cell plate for 20 minute incubation at 37° C. prior to reading. Fluorescence intensity was measured immediately following compound addition (25 μL/well) on the Flexstation at an excitation wavelength of 485 nm and an emission wavelength of 525 with 515 nm auto cutoff. The resulting increase in fluorescence intensities corresponds to increases in intracellular Ca^2+ levels.
Compounds were dissolved in 100% DMSO to a concentration of 20 mM to provide stock solutions. To determine activity against human GPR120, compounds were added with human GPR120 stably expressing cells (described above), at eight desired concentrations ranging from 0.00001 to 20 μM, in 96 well plates and fluorescence intensities were measured for 90 seconds with 2-second intervals. An EC50 value (concentration of the GPR120 agonist where 50% of the agonist's maximal activity is observed) was calculated using the changes (Max−Min) of fluorescence intensity.
To determine percent activity for a tested compound, the fluorescence intensity value obtained at a particular concentration were compared to the maximal fluorescence intensity value obtained for reference compound GW9508 (4-[[(3-phenoxyphenyl)methyl]amino]benzene propanoic acid; British Journal of Pharmacology 2006 148, 619-628) or the compound of Example 25. When GW9508 was used as the reference compound, the maximal activity of GW9508 at 6.7 μM was designated as 100% activity. When the compound of Example 25 was used as the reference compound, the maximal activity of the compound of Example 25 at 2.5 μM was designated as 100% activity. Typically, the GW9508 activity reached a maximum at a concentration of approximately 6.7 μM and typically the compound of Example 25 reached a maximum activity at approximately 2.5 μM.

| SMILES | % Activity (GW9508 Reference Compound) [%] |
| --- | --- |
| CC1(C)Cc2cc(F)cc(COc3ccc(CCCC(=O)O)cc3)c2O1 [Example 160, 4-(4-((5-fluoro-2,2-dimethyl-2,3-dihydrobenzofuran-7-yl)methoxy)phenyl)butanoic acid] | 172.13 |
| CC(Cc1ccc(OCc2ccc(C(F)(F)F)c3c2OC(C)(C)C3)cc1)C(=O)O (stereo not shown) [Example 34, 3-(4-((2,2-dimethyl-4-(trifluoromethyl)-2,3-dihydrobenzofuran-7-yl)methoxy)phenyl)-2-methylpropanoic acid] | 117.9 |
| CC1(C)Cc2c(ccc(F)c2COc2c(F)cc(C3CC3C(=O)O)cc2F)O1 (stereo not shown) [Example 99, 2-(3,5-difluoro-4-((5-fluoro-2,2-dimethyl-2,3-dihydrobenzofuran-4-yl)methoxy)phenyl)cyclopropanecarboxylic acid] | 101.53 |
| CC1(C)Cc2cc(Cl)cc(COc3ccc(CCC(=O)O)c(F)c3)c2O1 [Example 53, 3-(4-((5-chloro-2,2-dimethyl-2,3-dihydrobenzofuran-7-yl)methoxy)-2-fluorophenyl)-propanoic acid] | 143.19 |
| CC(Cc1ccc(NC(=O)c2cc(F)cc3c2OC(C)(C)C3)cc1)C(=O)O (stereo not shown) [Example 68, 3-(4-(5-fluoro-2,2-dimethyl-2,3-dihydrobenzofuran-7-carboxamido)phenyl)-2-methylpropanoic acid] | 69.03 |
| CC(Cc1ccc(OCc2cc(Cl)cc3c2OC(C)(C)C3)c(Cl)c1)C(=O)O (stereo not shown) [Example 12, 3-(3-chloro-4-((5-chloro-2,2-dimethyl-2,3-dihydrobenzofuran-7-yl)methoxy)phenyl)-2-methylpropanoic acid] | 116.1354 |
| COc1cc(OCc2cc(F)cc3c2OC(C)(C)C3)ccc1CCC(=O)O [Example 50, 3-(4-((5-fluoro-2,2-dimethyl-2,3-dihydrobenzofuran-7-yl)methoxy)-2-methoxyphenyl)propanoic acid] | 129.78 |
| CC1(C)Cc2cc(F)cc(COc3ccc4c(CC(=O)O)coc4c3)c2O1 [Example 262, 2-(6-((5-fluoro-2,2-dimethyl-2,3-dihydrobenzofuran-7-yl)methoxy)benzofuran-3-yl)acetic acid] | 137.39 |
| CC1(C)Cc2cc(F)cc(COc3ccc(C4CC4C(=O)O)cc3)c2O1 (single isomer, unassigned) [Example 131B, 2-(4-((5-fluoro-2,2-dimethyl-2,3-dihydrobenzofuran-7-yl)methoxy)phenyl)cyclopropanecarboxylic acid] | 105.8 |
| CC1(C)Cc2cc(Cl)cc(COc3c(F)cc(C4CC4C(=O)O)cc3F)c2O1 (racemic) [Example 35, 2-(4-((5-chloro-2,2-dimethyl-2,3-dihydrobenzofuran-7-yl)methoxy)-3,5-difluorophenyl)cyclopropanecarboxylic acid] | 60.11 |
| CC(Cc1ccc(OCc2cc(-c3ccc(Cl)cc3)cc3c2OC(C)(C)C3)cc1)C(=O)O (stereo not shown) [Example 82, 3-(4-((5-(4-chlorophenyl)-2,2-dimethyl-2,3-dihydrobenzofuran-7-yl)methoxy)phenyl)-2-methylpropanoic acid] | 24 |
| CC(Cc1ccc(OCc2cc(F)cc3c2OC(C)(C)C3)cc1)C(=O)NO (stereo not shown) [Example 264, 3-(4-((5-fluoro-2,2-dimethyl-2,3-dihydrobenzofuran-7-yl)methoxy)phenyl)-N-hydroxy-2-methylpropanamide] | 110.24 |
| CC1(C)Cc2cc(Cl)cc(COc3ccc(CCC(=O)O)c(-c4ccccc4)c3)c2O1 [Example 71, 3-(5-((5-chloro-2,2-dimethyl-2,3-dihydrobenzofuran-7-yl)methoxy)-[1,1′-biphenyl]-2-yl)propanoic acid] | 133.8 |
| CC(Cc1cc(F)c(OCc2ccc(C(F)(F)F)c3c2OC(C)(C)C3)c(F)c1)C(=O)O (stereo not shown) [Example 32, 3-(4-((2,2-dimethyl-4-(trifluoromethyl)-2,3-dihydrobenzofuran-7-yl)methoxy)-3,5-difluorophenyl)-2-methylpropanoic acid] | 143.1 |
| CC1(C)Cc2c(C(F)(F)F)ccc(COc3c(F)cc(C4CC4C(=O)O)cc3F)c2O1 (stereo not shown) [Example 31, 2-(4-((2,2-dimethyl-4-(trifluoromethyl)-2,3-dihydrobenzofuran-7-yl)methoxy)-3,5-difluorophenyl)cyclopropanecarboxylic acid] | 149.5 |
| CC(Cc1cc(F)c(OCc2cc(F)cc3c2OC(C)(C)C3)c(F)c1)C(=O)O (stereo not shown) [Example 18, 3-(3,5-difluoro-4-((5-fluoro-2,2-dimethyl-2,3-dihydrobenzofuran-7-yl)methoxy)phenyl)-2-methylpropanoic acid] | 130.0714 |
| CC(Cc1cc(F)c(OCc2c(F)c(F)cc3c2OC(C)(C)C3)c(F)c1)C(=O)O (stereo not shown) [Example 42, 3-(4-((5,6-difluoro-2,2-dimethyl-2,3-dihydrobenzofuran-7-yl)methoxy)-3,5-difluorophenyl)-2-methylpropanoic acid] | 140.94 |
| CC1(C)Cc2cc(F)cc(COc3ccc(CC(=O)O)cc3)c2O1 [Example 133, 2-(4-((5-fluoro-2,2-dimethyl-2,3-dihydrobenzofuran-7-yl)methoxy)phenyl)acetic acid] | 103.4 |
| COc1cc(CC(C)C(=O)O)ccc1OCc1cc(F)cc2c1OC(C)(C)C2 (stereo not shown) [Example 7, 3-(4-((5-fluoro-2,2-dimethyl-2,3-dihydrobenzofuran-7-yl)methoxy)-3-methoxyphenyl)-2-methylpropanoic acid] | 168.2 |
| CCc1cc(OCc2cc(F)cc3c2OC(C)(C)C3)c(F)cc1CCC(=O)O [Example 220, 3-(2-ethyl-5-fluoro-4-((5-fluoro-2,2-dimethyl-2,3-dihydrobenzofuran-7-yl)methoxy)phenyl)propanoic acid] | 115.86 |
| CC1(C)Cc2cc(Cl)cc(COc3ccc4c(c3)CC[C@H]4CC(=O)O)c2O1 [Example 176, (S)-2-(5-((5-chloro-2,2-dimethyl-2,3-dihydrobenzofuran-7-yl)methoxy)-2,3-dihydro-1H-inden-1-yl)acetic acid] | 138.42 |
| CC(Cc1cc(F)c(OCc2ccc(F)c3c2OC(C)(C)C3)c(F)c1)C(=O)O (stereo not shown) [Example 28, 3-(3,5-difluoro-4-((4-fluoro-2,2-dimethyl-2,3-dihydrobenzofuran-7-yl)methoxy)phenyl)-2-methylpropanoic acid] | 109.6 |
| [2H]C([2H])(Oc1ccc(CC(C)C(=O)O)cc1F)c1cc(F)cc2c1OC(C)(C)C2 (stereo not shown) [Example 230, 3-(4-(dideuterio(5-fluoro-2,2-dimethyl-2,3-dihydrobenzofuran-7-yl)methoxy)-3-fluorophenyl)-2-methylpropanoic acid] | 86.25 |
| CC(Cc1ccc(OCc2cc(Cl)cc3c2OC(C)(C)C3)c(C(F)(F)F)c1)C(=O)O (stereo not shown) [Example 9, 3-(4-((5-chloro-2,2-dimethyl-2,3-dihydrobenzofuran-7-yl)methoxy)-3-(trifluoromethyl)phenyl)-2-methylpropanoic acid] | 112.8 |

same assay, conditions: human GPR120 stably expressing cells, Ca2+ fluorescence (Max-Min), eight concentrations 0.00001 to 20 μM

| SMILES | pEC50 |
| --- | --- |
| CC(Cc1ccc(NC(=O)c2cc(F)cc3c2OC(C)(C)C3)cc1)C(=O)O (stereo not shown) [Example 68, 3-(4-(5-fluoro-2,2-dimethyl-2,3-dihydrobenzofuran-7-carboxamido)phenyl)-2-methylpropanoic acid] | < 5.00 |
